According to patent US7989438B2, “Therapeutic compounds” (Istituto di Ricerche di Biologia Molecolare P. Angeletti SpA, priority 2007, dated 2011):
Where two headings read alike, the source gives them in different places.

Tested on: HCV subgenomic replication
Test: Cell based HCV replication assay (subgenomic replicon in Huh-7 cells, NS3 Cell-ELISA)
Details: activity ranges
Outline: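 Huh-7 cells stably carrying the I377neo/NS3-3′/wt subgenomic replicon, seeded at 10^4 cells/well in DMEM/10% FCS and exposed to inhibitor for 96 h. NS3 expression was measured by Cell-ELISA (mAb 10E5/24, alkaline phosphatase, absorbance 405/620 nm), in duplicate. IC50 was fitted to the Hill equation, with background from parental Huh-7 cells.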

[1] = Table 5, various macrocycles, read-out: IC50* (nM), Inhibition of HCV subgenomic replication

Compound	IC50 [1] [nM]	further results
Cc1cccc2c1OCC1Cn3c-2c(C2CCCCC2)c2ccc(cc23)C(=O)NS(=O)(=O)N(C)CCN(C)CCN1C [Example 516, (7R)-14-cyclohexyl-4,18,21,24-tetramethyl-7,8-dihydro-6H-7,11-(epiminoethanoiminoethanoiminothioiminomethano)-indolo[1,2-e][1,5]benzoxazocin-15-one 17,17-dioxide]	< 25	
Cc1cccc2c1OCC1Cn3c-2c(C2CCCCC2)c2ccc(cc23)C(=O)NS(=O)(=O)N(C)CCN(Cc2cnn(C)c2)CCN1C [Example 517, (7R)-14-cyclohexyl-4,18,24-trimethyl-21-[(1-methyl-1H-pyrazol-4-yl)methyl]-7,8-dihydro-6H-7,11-(epiminoethanoiminoethanoiminothioiminomethano)-indolo[1,2-e][1,5]benzoxazocin-15-one 17,17-dioxide]	< 25	
CN1CCN(C)[C@H]2COc3ccccc3-c3c(C4CCCC4)c4ccc(cc4n3C2)C(=O)NS(=O)(=O)N(C)CC1 [Example 518, (7R)-14-cyclopentyl-18,21,24-trimethyl-7,8-dihydro-6H-7,11-(epiminoethanoiminoethanoiminothioiminomethano)-indolo[1,2-e][1,5]benzoxazocin-15-one 17,17-dioxide]	< 25	
COc1cccc2c1OCC1Cn3c-2c(C2CCCCC2)c2ccc(cc23)C(=O)NS(=O)(=O)N(C)CCOCCN1C [Example 519, (7R)-14-cyclohexyl-4-methoxy-18,24-dimethyl-7,8-dihydro-6H-7,11-(epiminoethanooxyethanoiminothioiminomethano)indolo[1,2-e][1,5]benzoxazocin-15-one 17,17-dioxide]	25 to 150	
Cc1cccc2c1OCC1CCCN(C)CCN(C)S(=O)(=O)NC(=O)c3ccc4c(C5CCCCC5)c-2n(c4c3)C1 [Example 520, (7R)-14-cyclohexyl-4,18,21-trimethyl-7,8-dihydro-6H-7,11-(propanoiminoethanoiminothioiminomethano)indolo[1,2-e][1,5]benzoxazocin-15-one 17,17-dioxide]	< 25	
Cc1cccc2c1OCC1CCN(C)CCCN(C)S(=O)(=O)NC(=O)c3ccc4c(C5CCCCC5)c-2n(c4c3)C1 [Example 521, (7R)-14-cyclohexyl-4,18,22-trimethyl-7,8-dihydro-6H-7,11-(ethanoiminopropanoiminothioiminomethano)indolo[1,2-e][1,5]benzoxazocin-15-one 17,17-dioxide]	< 25	
Cc1cccc2c1OCC1CCN(CCN(C)C)CCCN(C)S(=O)(=O)NC(=O)c3ccc4c(C5CCCCC5)c-2n(c4c3)C1 [Example 522, (7R)-14-cyclohexyl-22-[2-(dimethylamino)ethyl]-4,18-dimethyl-7,8-dihydro-6H-7,11-(ethanoiminopropanoiminothioiminomethano)indolo[1,2-e][1,5]benzoxazocin-15-one 17,17-dioxide]	< 25	
COc1ccc2c(c1)OC[C@@H]1CCN(C)C3CCN(CC3)S(=O)(=O)NC(=O)c3ccc4c(C5CCCCC5)c-2n(c4c3)C1 [Example 523, (20R)-30-cyclohexyl-15-methoxy-23-methyl-18-oxa-2-thia-1,3,10,23-tetraazahexacyclo[22.2.2.1^5,9.1^8,11.1^10,20.0^12,17]hentriaconta-5(31),6,8,11(30),12,14,16-heptaen-4-one 2,2-dioxide]		IC50 (Hepatitis C virus, Huh-7, Table 5, various macrocycles, read-out: IC50* (nM), Inhibition of HCV subgenomic replication): < 25 nM
COc1ccc2c(c1)OCC1CCN(C)CC(F)(F)CN(C)S(=O)(=O)NC(=O)c3ccc4c(C5CCCCC5)c-2n(c4c3)C1 [Example 524, (7R)-14-cyclohexyl-20,20-difluoro-3-methoxy-18,22-dimethyl-7,8-dihydro-6H-7,11-(ethanoiminopropanoiminothioiminomethano)indolo[1,2-e][1,5]benzoxazocin-15-one 17,17-dioxide]	150 to 500	
COc1ccc2c(c1)OCC1CCN(C)CC(F)CN(C)S(=O)(=O)NC(=O)c3ccc4c(C5CCCCC5)c-2n(c4c3)C1 [Example 525, (7R)-14-cyclohexyl-20-fluoro-3-methoxy-18,22-dimethyl-7,8-dihydro-6H-7,11-(ethanoiminopropanoiminothioiminomethano)indolo[1,2-e][1,5]benzoxazocin-15-one 17,17-dioxide]	< 25	
(5R)-31-cyclohexyl-4,24-dimethyl-7-oxa-23-thia-1,4,15,22,24-pentaazahexacyclo[23.2.2.1^5,15.1^14,17.1^16,20.0^8,13]dotriaconta-8,10,12,14(31),16(30),17,19-heptaen-21-one 23,23-dioxide [Example 305]		IC50 (Table 3, various macrocycles, read-out: IC50* (nM), Inhibition of HCV subgenomic replication): < 25 nM
(7R)-14-cyclohexyl-4-methoxy-18,22-dimethyl-7,8-dihydro-6H-7,11-(ethanoiminopropanoiminothioiminomethano)indolo[1,2-e][1,5]benzoxazocin-15-one 17,17-dioxide [Compound A33]		IC50 (Table A, Huh-7 replicon cells, 96 hours, read-out: IC50 (nM), Inhibition of HCV subgenomic replication): < 25 nM
